Experimental data published in patent publication US5338725A, “Anti-aggregatory agents for platelets” (The Research Foundation of the State University of New York, priority 1992, dated 1994).
Non-standard residues stand in square brackets, D forms with d. Residues, ends and D or L forms follow the SMILES beside them. 4Abz = Nc1ccc(C(=O)O)cc1

Molecular target: human platelet-rich plasma (Homo sapiens, UniProt P05106+P08514)
Assay: In vitro inhibition of ADP-induced aggregation of human platelet-rich plasma (Coller assay)
Assay type: cell-based
Details: adjusted for fibrinogen concentration (ca. 30 times lower than Coller assay value; 0.1 mg/mL fibrinogen)
Procedure: 1. In vitro Inhibition of Aggregation of Human Platelet-Rich Plasma
Whole blood (10 ml) was collected from human volunteers and anticoagulated by addition of […] of 40% sodium citrate. Platelet-rich plasma (PRP) was prepared by low speed centrifugation (700 G for 3.5 min at 22° C.). The PRP was removed and the remaining blood was centrifuged at 2000 G for 10 min at 22 ° C. to obtain platelet poor plasma (PPP). The PRP was diluted with PPP to give a final platelet count of 300 000μL with a Coulter Acounter Model ZM (Coulter, Hialeah, Fla.). This diluted PRP (400μL) was placed in a siliconized glass cuvette equipped with a magnetic stirrer and stirred at 1200 rpm at 37° C. Various concentrations of the peptides (36μL) in TRIS buffer (0.01 M TRIS, 0.15 M NaCl, and 0.05% sodium azide, pH 7.4) was added and incubated for 3 rain before platelet aggregation was induced by addition of 54μL of 100μM ADP in HEPES buffer (0.01 M HEPES and 0.15 M NaCl, pH 7.5). The platelet aggregation was determined by a change in light transmission through the PRP on a Lumi Aggregometer 400rS (ChronoLog, Hayertown, PA). The ability of the peptides to inhibit platelet aggregation was evaluated and the IC50 was determined as the concentration of peptide required to produce 50% inhibition of the response to ADP in the presence of the TRIS buffer.
The assay system developed by Coller, which is used throughout the experiment, is different from conventional assay systems in certain aspects. First, the platelets used by Plow et al., Blood, 70, 110 (1987); and Garsky et al., Proc. Natl. Acad. Sci. U.S.A., 86, 4022 (1989) are gel-filtered to remove plasma proteins. Since the gel-filtration treatment may decrease the reactivity of the platelets, our assay avoids this step. The platelet count is adjusted by simply mixing PRP and PPP, which minimizes alterations of the platelets. Second, fibrinogen concentration in the Coller system is different from that of others. As shown in the experimental description of the assay, PRP was obtained from fresh blood and used immediately without further manipulation except for count adjustment. According to measurements obtained using this assay, such plasma contains ca. 3 mg of fibrinogen per 1 mL of plasma. On the other hand, fibrinogen concentration used in the Garsky and Plow assay system is 0.1 mg/mL. The concentration of fibrinogen affects the amount of RGD peptide required to inhibit platelet aggregation, with higher fibrinogen concentrations resulting in higher IC50 values. If there is a linear relationship between these two parameters, the IC50 values obtained from the Coller assay should be ca. 30 times larger than those obtained from the Plow et al. assay or the Garsky et al. assay. The adjusted IC50 values are presented in column 4 of Table showing the inhibitory activities of RGD peptides.
The following peptides were synthesized, and their amino acid contents were analyzed as described in procedures 3-7, above. In addition, their ability to inhibit aggregation of human platelet rich plasma was assessed as described in procedures 1 and 2, above. Their respective IC50 values, as well as their estimated IC50 adjusted to the values according the method of Plow et al., (vide supra) are listed in Table 1.

Sequence of human platelet-rich plasma (P08514 32-1039): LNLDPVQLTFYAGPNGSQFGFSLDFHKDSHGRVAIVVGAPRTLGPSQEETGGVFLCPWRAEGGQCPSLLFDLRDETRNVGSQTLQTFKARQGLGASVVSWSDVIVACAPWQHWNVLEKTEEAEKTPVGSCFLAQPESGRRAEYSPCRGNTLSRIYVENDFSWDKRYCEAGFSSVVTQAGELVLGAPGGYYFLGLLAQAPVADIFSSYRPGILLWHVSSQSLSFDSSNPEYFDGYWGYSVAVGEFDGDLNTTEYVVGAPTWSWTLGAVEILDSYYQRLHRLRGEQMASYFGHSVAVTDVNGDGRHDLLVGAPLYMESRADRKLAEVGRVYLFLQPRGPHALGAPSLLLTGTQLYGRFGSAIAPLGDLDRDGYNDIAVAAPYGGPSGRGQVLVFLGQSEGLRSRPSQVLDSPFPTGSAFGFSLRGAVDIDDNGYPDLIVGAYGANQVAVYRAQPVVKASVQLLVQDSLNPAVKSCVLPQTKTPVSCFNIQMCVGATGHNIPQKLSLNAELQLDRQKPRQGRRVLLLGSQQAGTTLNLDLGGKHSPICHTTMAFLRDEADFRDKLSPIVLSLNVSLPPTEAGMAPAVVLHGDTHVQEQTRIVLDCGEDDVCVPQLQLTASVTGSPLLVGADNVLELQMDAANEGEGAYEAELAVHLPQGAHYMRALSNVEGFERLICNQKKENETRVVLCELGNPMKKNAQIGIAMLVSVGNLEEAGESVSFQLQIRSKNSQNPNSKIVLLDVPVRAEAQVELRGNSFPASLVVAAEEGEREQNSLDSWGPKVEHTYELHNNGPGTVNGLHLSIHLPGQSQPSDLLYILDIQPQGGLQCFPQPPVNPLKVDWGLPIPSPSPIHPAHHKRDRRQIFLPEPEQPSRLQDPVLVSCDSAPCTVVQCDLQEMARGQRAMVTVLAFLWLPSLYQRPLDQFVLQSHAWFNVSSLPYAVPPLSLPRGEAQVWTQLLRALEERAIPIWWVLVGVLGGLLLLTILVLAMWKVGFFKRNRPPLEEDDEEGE
Sequence of human platelet-rich plasma (P05106 27-788): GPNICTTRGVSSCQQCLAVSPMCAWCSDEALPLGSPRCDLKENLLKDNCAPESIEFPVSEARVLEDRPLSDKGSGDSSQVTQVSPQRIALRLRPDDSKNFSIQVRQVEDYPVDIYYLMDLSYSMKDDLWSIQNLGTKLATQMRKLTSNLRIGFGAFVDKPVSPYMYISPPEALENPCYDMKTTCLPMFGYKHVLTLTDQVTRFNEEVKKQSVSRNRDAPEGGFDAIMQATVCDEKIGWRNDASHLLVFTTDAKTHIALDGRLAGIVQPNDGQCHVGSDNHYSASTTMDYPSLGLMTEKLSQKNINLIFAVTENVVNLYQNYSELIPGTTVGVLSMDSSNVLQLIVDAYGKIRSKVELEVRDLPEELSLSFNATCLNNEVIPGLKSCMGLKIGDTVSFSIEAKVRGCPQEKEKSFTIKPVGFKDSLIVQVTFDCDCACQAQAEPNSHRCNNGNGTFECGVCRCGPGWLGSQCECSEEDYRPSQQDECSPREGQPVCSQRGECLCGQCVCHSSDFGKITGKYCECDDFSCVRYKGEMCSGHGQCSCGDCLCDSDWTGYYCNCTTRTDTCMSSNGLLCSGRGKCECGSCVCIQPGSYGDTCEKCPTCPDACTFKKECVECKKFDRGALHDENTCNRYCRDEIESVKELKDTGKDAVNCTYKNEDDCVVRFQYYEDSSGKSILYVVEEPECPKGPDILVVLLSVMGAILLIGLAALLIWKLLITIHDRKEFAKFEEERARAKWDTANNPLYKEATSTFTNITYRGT

IC50 (M)* Estimated IC50 adjusted to the values by the method of Plow et al. [M]	SMILES
1.7e-06	N=C(N)NCCC[C@H](NC(=O)CN)C(=O)NCC(=O)N[C@@H](CC(=O)O)C(=O)N[C@@H](CO)C(=O)NCC(=O)Nc1ccc(C(=O)NCC(=O)N[C@@H](CCCNC(=N)N)C(=O)NCC(=O)N[C@@H](CC(=O)O)C(=O)N[C@@H](Cc2ccccc2)C(N)=O)cc1 [Example 27, GRGDSG-(p)Abz--GRGDF--NH2] (H-GRGDSG[4Abz]GRGDF-NH2)
4.4e-06	N=C(N)NCCC[C@H](NC(=O)CN)C(=O)NCC(=O)N[C@@H](CC(=O)O)C(=O)N[C@@H](Cc1ccccc1)C(=O)NCCC[C@H](NC(=O)[C@H](Cc1ccccc1)NC(=O)[C@H](CC(=O)O)NC(=O)CNC(=O)[C@H](CCCNC(=N)N)NC(=O)CN)C(N)=O [Example 5, (GRGDF)2 Orn--NH2]
